PubChem BioAssay AID1963869 (Molecular Pharmacology Branch, DTP, NCI, 2024)

Test system: KRAS patient-derived spheroids with HUVEC/MSC, viability
Assay: Anticancer human tumor 323965-272-R-J2-PDC patient-derived pancreatic carcinoma cell line growth inhibition [KRAS2]
Conditions: for IC50: curve of first compound; for viability, T/C: stronger effect = lower value
In short: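 Combination screen of spheroid viability in tumor-cell co-cultures with endothelial (HUVEC) and mesenchymal stem cell stroma. Each agent was tested in half-log dilutions, topping at clinical Cmax or at 10 microM without a known Cmax.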

[1] = second compound 0.1 µM, first compound 0.0316 µM
[2] = second compound 0.1 µM, first compound 0.1 µM
[3] = second compound 0.1 µM, first compound 0.316 µM
[4] = second compound 0.1 µM, first compound 1 µM
[5] = second compound 0.1 µM, first compound 3.16 µM
[6] = second compound 0.1 µM, first compound 10 µM
[7] = second compound 0.316 µM, first compound 0.0316 µM
[8] = second compound 0.316 µM, first compound 0.1 µM
[9] = second compound 0.316 µM, first compound 0.316 µM
[10] = second compound 0.316 µM, first compound 1 µM
[11] = second compound 0.316 µM, first compound 3.16 µM
[12] = second compound 0.316 µM, first compound 10 µM
[13] = second compound 1 µM, first compound 0.0316 µM
[14] = second compound 1 µM, first compound 0.1 µM
[15] = second compound 1 µM, first compound 0.316 µM
[16] = second compound 1 µM, first compound 1 µM
[17] = second compound 1 µM, first compound 3.16 µM
[18] = second compound 1 µM, first compound 10 µM
[19] = second compound 3.16 µM, first compound 0.0316 µM
[20] = second compound 3.16 µM, first compound 0.1 µM
[21] = second compound 3.16 µM, first compound 0.316 µM
[22] = second compound 3.16 µM, first compound 1 µM
[23] = second compound 3.16 µM, first compound 3.16 µM
[24] = second compound 3.16 µM, first compound 10 µM
[25] = second compound 10 µM, first compound 0.0316 µM
[26] = second compound 10 µM, first compound 0.1 µM
[27] = second compound 10 µM, first compound 0.316 µM
[28] = second compound 10 µM, first compound 1 µM
[29] = second compound 10 µM, first compound 3.16 µM
[30] = second compound 10 µM, first compound 10 µM
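Further: spheroids exposed to agents for 7 days.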
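Wherever viability, T/C is given: 100% = DMSO vehicle control viability.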

Compound	IC50 (second compound 0.1 µM) [nM]	IC50 (second compound 0.316 µM) [nM]	IC50 (second compound 1 µM) [nM]	IC50 (second compound 3.16 µM) [nM]	IC50 (second compound 10 µM) [nM]	viability, T/C [1] [%]	viability, T/C [2] [%]	viability, T/C [3] [%]	viability, T/C [4] [%]	viability, T/C [5] [%]	viability, T/C [6] [%]	viability, T/C [7] [%]	viability, T/C [8] [%]	viability, T/C [9] [%]	viability, T/C [13] [%]	viability, T/C [14] [%]	viability, T/C [19] [%]	viability, T/C [20] [%]	viability, T/C [25] [%]	viability, T/C [26] [%]	further results
CCNC(=O)CC1N=C(c2ccc(Cl)cc2)c2cc(OC)ccc2-n2c(C)nnc21 (stereo not given) + CC1OCC2(CCN(c3cnc(Sc4ccnc(N)c4Cl)c(N)n3)CC2)C1N	244	146	< 31.6	< 31.6	< 31.6	74.6	63.5	44.9	36.3	28.6	27.4	63.3	57.8	34.4	45.6	35.5	16.2	20.8	16.6	16.3	viability, T/C [10]: 28%; viability, T/C [11]: 25.2%; viability, T/C [12]: 22.6%; viability, T/C [15]: 27.2%; viability, T/C [16]: 22.2%; viability, T/C [17]: 11.9%; viability, T/C [18]: 7.8%; viability, T/C [21]: 14.3%; viability, T/C [22]: 13.1%; viability, T/C [23]: 6.89%; viability, T/C [24]: 4.84%; viability, T/C [27]: 14.9%; viability, T/C [28]: 8.18%; viability, T/C [29]: 6.22%; viability, T/C [30]: 3.88%
Cn1nccc1Nc1nccc(-c2cc3c(s2)C(C)(C)N(CCN2CCOCC2)C3=O)n1 + CC1OCC2(CCN(c3cnc(Sc4ccnc(N)c4Cl)c(N)n3)CC2)C1N	806	102	< 31.6	< 31.6	< 31.6	66.1	67.3	55.8	51	35.9	36.4	56	50.3	36.2	32.9	32.4	17.4	16	14.4	12.8	viability, T/C [10]: 33.1%; viability, T/C [11]: 33.6%; viability, T/C [12]: 33.5%; viability, T/C [15]: 27.4%; viability, T/C [16]: 22%; viability, T/C [17]: 23.3%; viability, T/C [18]: 22.9%; viability, T/C [21]: 13.9%; viability, T/C [22]: 14.7%; viability, T/C [23]: 14.7%; viability, T/C [24]: 18.8%; viability, T/C [27]: 9.42%; viability, T/C [28]: 8.83%; viability, T/C [29]: 9.11%; viability, T/C [30]: 12.2%
Cn1ncnc1[C@H]1c2n[nH]c(=O)c3cc(F)cc(c23)N[C@@H]1c1ccc(F)cc1 + CC1OCC2(CCN(c3cnc(Sc4ccnc(N)c4Cl)c(N)n3)CC2)C1N	> 100	35.9	< 0.316	< 0.316	< 0.316	76.2	62	–	–	–	–	51.2	45	–	42	38	24.4	21	18.7	17.2	viability, T/C (second compound 0.1 µM, first compound 0.000316 µM): 80.9%; viability, T/C (second compound 0.1 µM, first compound 0.001 µM): 82.9%; viability, T/C (second compound 0.1 µM, first compound 0.00316 µM): 82.9%; viability, T/C (second compound 0.1 µM, first compound 0.01 µM): 79.7%; viability, T/C (second compound 0.316 µM, first compound 0.000316 µM): 57.5%; viability, T/C (second compound 0.316 µM, first compound 0.001 µM): 62.5%; viability, T/C (second compound 0.316 µM, first compound 0.00316 µM): 55.2%; viability, T/C (second compound 0.316 µM, first compound 0.01 µM): 53.6%; viability, T/C (second compound 1 µM, first compound 0.000316 µM): 44%; viability, T/C (second compound 1 µM, first compound 0.001 µM): 47.5%; viability, T/C (second compound 1 µM, first compound 0.00316 µM): 45.7%; viability, T/C (second compound 1 µM, first compound 0.01 µM): 43.7%; viability, T/C (second compound 3.16 µM, first compound 0.000316 µM): 34.4%; viability, T/C (second compound 3.16 µM, first compound 0.001 µM): 32%; viability, T/C (second compound 3.16 µM, first compound 0.00316 µM): 30.1%; viability, T/C (second compound 3.16 µM, first compound 0.01 µM): 28.2%; viability, T/C (second compound 10 µM, first compound 0.000316 µM): 29.3%; viability, T/C (second compound 10 µM, first compound 0.001 µM): 23.2%; viability, T/C (second compound 10 µM, first compound 0.00316 µM): 20.8%; viability, T/C (second compound 10 µM, first compound 0.01 µM): 20.1%
